Patent US20060263448A1, “Use of extracts from roots of pelargonium sidoides and pelargonium reniforme” (priority 2004, published 2006)

Test system: Mycobacterium ranae
Test: Assay on anti-mycobacterial activity (suspension dilution method)
Type: cell-based
Details: M. ranae, 48 h at 37° C., visual evaluation of growth inhibition
Description: To assay the anti-mycobacterial efficacy, Mycobacterium ranae that represents a non-human pathogenic mycobacterium having a similar sensitivity against chemotherapeutic agents like M. tuberculosis was used. The suspension dilution method was used to determine the minimal inhibitory concentration (MHC). The extract of Pelargonium sidoides was solved in DMSO and serially diluted to obtain the required concentrations. Pelargonium extract or the solvent was added in a volume of 10 μl to 48-well microtiter plates containing 990 μl of an M. ranae suspension (ATCC 10) in a concentration of 1-5×10^5 CFU/ml Brain-Heart Infusion Broth (Difco, USA) per well. The maximum concentration of the solvent (DMSO) was 1%. Pelargonium extract was tested at concentrations between 100 and 0.03 μg/ml. All tests were carried out twice. The plates were incubated for 48 h at 37° C. and then the inhibition of the growth of the bacteria was evaluated visually.

Gentamicin
minimal inhibitory concentration (MHC): 0.3 µg/mL
